Measured values reported in PubChem BioAssay (NCI).
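Briefly, cells in 96-well plates were exposed to five compound concentrations for 48 h, and endpoints were estimated by linear interpolation. GI50 = concentration required for 50% inhibition of growth. Definition used: TGI = concentration required for complete inhibition of growth.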

Key:
Experiment in all cases: inhibition of tumour cell growth, NCI panel, 48 h
NCI-H522 lung = system: NCI-H522 lung
KM12 colon = system: KM12 colon
K-562 leukemia = system: K-562 leukemia
HT29 colon = system: HT29 colon
RPMI-8226 leukemia = system: RPMI-8226 leukemia
CCRF-CEM leukemia = system: CCRF-CEM leukemia
UACC-257 melanoma = system: UACC-257 melanoma
NCI-H460 lung = system: NCI-H460 lung
DU-145 prostate = system: DU-145 prostate
HOP-92 NSCLC = system: HOP-92 NSCLC

Structure (SMILES)	GI50 (NCI-H522 lung)	TGI (NCI-H522 lung)	GI50 (KM12 colon)	TGI (KM12 colon)	GI50 (K-562 leukemia)	TGI (K-562 leukemia)	GI50 (HT29 colon)	TGI (HT29 colon)	GI50 (RPMI-8226 leukemia)	TGI (RPMI-8226 leukemia)	GI50 (CCRF-CEM leukemia)	TGI (CCRF-CEM leukemia)	GI50 (UACC-257 melanoma)	TGI (UACC-257 melanoma)	GI50 (NCI-H460 lung)	TGI (NCI-H460 lung)	GI50 (DU-145 prostate)	TGI (DU-145 prostate)	GI50 (HOP-92 NSCLC)	TGI (HOP-92 NSCLC)
O=[N+]([O-])c1ccc2c(c1)C(c1ccccc1Cl)=Nc1cn[nH]c1N2	15.5 µM	> 25 µM	12.1 µM	> 25 µM	19 µM	> 25 µM	19.2 µM	> 25 µM	> 24200 nM	> 25 µM	8000 nM	> 25 µM	> 25 µM	> 25 µM	16.1 µM	> 25 µM	20.4 µM	> 25 µM	–	–
CC(C)S(=O)(=O)c1ccccc1Nc1nc(Nc2cccc(NC(=O)CN)c2)ncc1Cl	1.33 µM	4.08 µM	0.0331 µM	2.45 µM	0.198 µM	2.55 µM	0.183 µM	2.83 µM	254 nM	2.41 µM	< 35.5 nM	4.5 µM	0.997 µM	6.73 µM	0.0306 µM	1.64 µM	0.406 µM	6.51 µM	0.102 µM	1.55 µM
CCCCC1(CN2CCOCC2)S/C(=N/c2nc(CC(=O)OCC)cs2)NC1=O (stereo unspecified)	32.1 µM	> 100 µM	27.7 µM	> 100 µM	30.9 µM	> 100 µM	40 µM	> 100 µM	25600 nM	80.6 µM	–	–	40.4 µM	> 100 µM	–	–	27 µM	> 100 µM	32.9 µM	> 100 µM
Cc1cc2c(cc1Cl)SC(=Nc1ccc(Cl)cc1)N(S(=O)(=O)c1ccccc1)S2(=O)=O	12.4 µM	52.8 µM	20 µM	50.4 µM	9.19 µM	58.2 µM	–	–	2670 nM	14.7 µM	4920 nM	27.4 µM	17.4 µM	34.9 µM	11.8 µM	29.2 µM	12.6 µM	25.1 µM	5.39 µM	26.1 µM
CCc1ccccc1NC(=O)c1sc2nc3c(cc2c1N)C(=O)CCC3	0.502 µM	> 100 µM	0.432 µM	> 100 µM	0.275 µM	> 100 µM	0.372 µM	29.5 µM	782 nM	> 30.9 µM	352 nM	> 100 µM	27.6 µM	> 100 µM	0.367 µM	> 100 µM	0.589 µM	> 100 µM	–	–
N#CC(=NCCO)C1=C(O)c2ccccc2C1=O	–	> 100 µM	–	> 100 µM	–	> 100 µM	–	> 100 µM	–	> 100 µM	–	–	–	> 100 µM	–	> 100 µM	–	> 100 µM	–	> 100 µM
C=CCSS/C=C/CS(=O)CC=C (stereo unspecified)	–	32.3 µM	–	> 100 µM	–	> 77.9 µM	–	> 74.6 µM	–	48.8 µM	–	> 100 µM	–	> 100 µM	–	> 100 µM	–	> 100 µM	–	> 100 µM
COc1ccc(OC)c2c(/C=C/c3ccc(N(C)C)cc3)ccnc12	–	> 10 µM	–	> 10 µM	–	> 10 µM	–	> 10 µM	–	–	–	9.28 µM	–	> 10 µM	–	> 10 µM	–	> 10 µM	–	> 10 µM
COc1ccc(C(=O)COc2cccc(/C=C3\Oc4ccc5ccccc5c4C3=O)c2)cc1	1.46 µM	3.29 µM	3.39 µM	14.6 µM	1.53 µM	3.73 µM	6.92 µM	44.6 µM	345 nM	2.01 µM	327 nM	1.44 µM	14.5 µM	32.4 µM	20.6 µM	52.6 µM	4.19 µM	16 µM	0.0932 µM	25.6 µM
O=C(COc1ccc(/C=C2\CSc3ccccc3C2=O)cc1)Nc1nccs1	1.92 µM	4.17 µM	2.96 µM	8.99 µM	3.11 µM	> 100 µM	4.48 µM	16.2 µM	2130 nM	6.7 µM	2010 nM	9.09 µM	12.6 µM	25.1 µM	15.9 µM	31.9 µM	4.2 µM	14.3 µM	0.026 µM	9.46 µM
Cc1cn2c(/C=C3\C(=O)N(C)c4ccc(O)cc43)c(C)nc2s1	3.02 µM	13.7 µM	2.38 µM	> 100 µM	2.01 µM	20.6 µM	3.12 µM	18.4 µM	5980 nM	> 100 µM	6000 nM	> 100 µM	> 100 µM	> 100 µM	3.54 µM	21.3 µM	21 µM	> 100 µM	31.7 µM	> 100 µM
Cc1c(C2=C(Br)C(=O)N(C)C2=O)c(=O)n(C)c(=O)n1C	–	29.5 µM	–	> 100 µM	–	59.7 µM	–	42.2 µM	–	46.3 µM	–	48 µM	–	32 µM	–	> 100 µM	–	80.9 µM	–	34.4 µM
Cc1cc(C2CC(O)C(CO)O2)cc2c(=O)[nH]c(N)nc12 (stereo unspecified)	> 100 µM	> 100 µM	–	–	> 100 µM	> 100 µM	> 100 µM	> 100 µM	> 100000 nM	> 100 µM	> 100000 nM	> 100 µM	> 100 µM	> 100 µM	> 100 µM	> 100 µM	> 100 µM	> 100 µM	> 100 µM	> 100 µM
COc1cc2c3c(n(CCCN(C)C)c(=O)c2cc1OC)-c1ccccc1C3=O	5.59 µM	> 100 µM	5.61 µM	41.9 µM	4.39 µM	24.4 µM	0.738 µM	16.6 µM	238 nM	1.53 µM	240 nM	1.73 µM	> 100 µM	> 100 µM	3.51 µM	21.6 µM	5.05 µM	24.7 µM	23.2 µM	> 100 µM
